Reference: patent publication US20260027073A1, “USE OF SMALL-MOLECULE COMPOUND HAVING NAPHTHYLAMINE STRUCTURE” (HANGZHOU PHECDAMED CO., LTD., priority 2023, published 2026)

Columns and labels:
[1] = test system: mouse bone marrow mesenchymal stem cells; test: Senescence of mouse bone marrow mesenchymal stem cells by passaging; type: cell-based; settings: 10 μM
Description: Extraction of bone marrow mesenchymal stem cells: C57 mice weighing about 25 g were selected, and after anesthesia with 30 mg/kg chloral hydrate, the femur and tibia were removed and put into a Petri dish, one end of the femur and tibia were cut off to fully expose the bone marrow cavity, and a 1 ml syringe was used to extract the DMEM/F12 medium, and the tip of the needle was pricked into the bone marrow cavity to rinse the bone marrow, and a 15 ml centrifuge tube was connected underneath to make the rinsed liquid flow into the centrifuge tube, and the rinsing was repeated several times until the bone marrow cavity was rinsed clean. The rinsed suspension was blown repeatedly with a pipette to make the cells in the rinsed liquid as single-cell as possible, and the supernatant was transferred to another tube after standing still for a few minutes, and the cell suspension was continued to blow to make the cells well dispersed. The obtained cell suspension was centrifuged at 1000 rpm for 5 min, and after removing the residual supernatant, 1 ml of DMEM/F12 medium was added, and after repeated blowing, the CD45-Sca-1+PDGFRα+high-purity primary mouse bMSC cell line was sorted out by flow cytometric sorting, and the sorted cells were dispensed into culture flasks. The cells were observed under the microscope and placed in the incubator at 37° C., 5% CO2 to incubate, and the solution was replaced for 72 h, the drug administration treatment was performed at the first passaging, and then 10 μM TJ01-013 was given to each passaging thereafter, labeled as Con-Y at the 2nd generation, and labeled as Con-O at the 9th generation, and the drug administration treatment groups were given until the 9th generation, and all the cells were placed under the microscope for observing the morphology of the cells, and the proportion of the SA-β-gal+ cells was counted. The levels of the DNA damage marker γ-H2AX and the heterochromatin modification H3K9me3 after TJ01-013 treatment were detected by immunofluorescence technique (procedure described previously).

[2] = test system: cisplatin-induced hearing impairment model in mice; test: Cisplatin-induced hearing damage; type: in vivo, C57 mice
Description: Select 8-week-old C57 male mice weighing 22-25 g, according to the previous studies and the previous laboratory exploration, mice were induced to have hearing damage by 4 mg/kg of cisplatin, and a certain amount of cisplatin was dissolved in 0.9% saline of the model control group, and then intraperitoneally injected into the mice for four consecutive days, with the volume of the intraperitoneal injection of 5 ml/kg, and then intraperitoneally injected into the mice for four consecutive days with the volume of 0.9% saline for recovery and alleviation, the injection was prescribed at the same time point every day, and no treatment was done on the 9th day to conduct hearing test or dissect the mice for subsequent experiments. […]
The mice were sacrificed by neck dissection, and the cochlea was removed from mice by neck dissection, and processed under the anatomical microscope to expose the round window and the oval window, the cochlear apex was perforate, and the round window, the oval window and the cochlear apex were perfused with 4% PFA solution, and then the whole cochlea was put into 4% PFA solution for fixation, and was shaken overnight at 4° C. […] Finally, photographs were taken using a fluorescence microscope.

O=C(O)C[S+]([O-])c1cc(NS(=O)(=O)c2ccc(Br)cc2)c2ccccc2c1O (centres unmarked) [I-1]
percentage of SA-β-gal+ cells ([1]; 9th generation, vs Con-O, FIG. 48): significantly decreased | expression level of heterochromatin-modified H3K9me3 ([1]; Con-O cells, FIG. 50): restored its expression level to some extent | level of DNA damage marker γ-H2AX ([1]; aged cells, FIG. 49): significantly reduced | hearing thresholds (ABR) ([2]; 4, 8, 16, 24, 32 kHz, 30 mg/kg gavage, 8 days, FIG. 46): significantly decreased | loss of hair cells (Myo7a, cochlear basement membrane) ([2]; apical, middle, base gyrus, FIG. 47): significantly reduced the loss of hair cells
